The results in this text go back to patent US9504251B2, “Pesticidal compositions and related methods” (Dow AgroSciences LLC, priority 2014, dated 2016).

In assay [1] the test system is Sweetpotato Whitefly-crawler (Bemisia tabaci) (WF) (BEMITA). As to the kind of experiment: Sweetpotato whitefly-crawler (WF) foliar spray assay on cotton plants. The conditions noted are these: 216 h, 200 ppm foliar spray on cotton plants, graded after 9 days, Abbott-corrected % control, disclosed compounds (TABLE 2), read-out: WF % Control (or Mortality) rating. Format: in vivo. As for the experimental part:
Foliar spray assay for WF was prepared as follows: Cotton plants (Gossypium hirsutum) grown in 3-inch pots, with 1 small (4-5 cm) true leaf, were used as test substrate. The plants were infested with 200-400 whitefly eggs 4-5 days prior to chemical application. Four pots with individual plants were used for each treatment. Tested compounds (2 mg) were dissolved in 1 mL of acetone solvent, forming stock solutions of 2000 ppm tested compound.
The stock solutions were diluted ten times with 0.025% TWEEN® 20 surfactant in H2O (diluents) to obtain the solution at 200 ppm tested compound. A hand-held aspirator-type sprayer was used for spraying the solution to both sides of cotton leaves until runoff. The control plants (solvent check) were sprayed with the diluent only containing 10% by volume of acetone solvent. Treated plants were held in a holding room for 9 days at approximately 25° C. and ambient relative humidity (RH) prior to grading. Evaluation was conducted by counting the number of live 3-4 nymph stage per plant under a microscope. Percent control was measured by using Abbott's correction formula (W. S. Abbott, “A Method of Computing the Effectiveness of an Insecticide,” J. Econ. Entomol. 18 (1925), pp. 265-267) as follows. Corrected % Control=100*(X−Y)/X
X=No. of live nymphs on solvent check plants and
Y=No. of live nymphs on treated plants.
(§1) The comparative compounds were tested for insecticidal activities against GPA and WF pests using the same test protocols described above for the disclosed compounds.

The test system of assay [2] is Green Peach Aphid (Myzus persicae) (GPA) (MYZUPE). As to the kind of experiment: Green peach aphid (GPA) foliar spray bioassay on cabbage seedlings. Format: in vivo. The settings on record: 72 h, 200 ppm foliar spray on cabbage seedlings, graded after three days, Abbott-corrected % control, disclosed compounds (TABLE 2), read-out: GPA % Control (or Mortality) rating. The method, then: Bioassay for GPA was prepared as follows: Cabbage seedlings grown in 3-inch pots, with 2-3 small (3-5 cm) true leaves, were used as test substrate. The seedlings were infested with 20-50 GPA (adult and nymph stages) one day prior to chemical application. Four pots with individual seedlings were used for each treatment. The tested compounds (2 mg) were dissolved in 2 mL of acetone/methanol (1:1) solvent to form stock solutions of 1000 ppm tested compound. The stock solutions were diluted five times with an aqueous solution containing 0.025% TWEEN® 20 surfactant, which is polyoxyethylene (20) sorbitan monolaurate, to obtain the solution at 200 ppm tested compound. A hand-held aspirator-type sprayer was used for spraying the solution to both sides of cabbage leaves until runoff. The control plants (solvent check) were sprayed with the diluent only containing 20% by volume of acetone/methanol (1:1) solvent. Treated plants were held in a holding room for three days at approximately 25° C. and ambient relative humidity (RH) prior to grading. Evaluation was conducted by counting the number of live aphids per plant under a microscope. Percent control was measured by using Abbott's correction formula (W. S. Abbott, “A Method of Computing the Effectiveness of an Insecticide,” J. Econ. Entomol. 18 (1925), pp. 265-267) as follows. Corrected % Control=100*(X−Y)/X
X=No. of live aphids on solvent check plants and
Y=No. of live aphids on treated plants
as §1

Each structure is given as a SMILES string. A value given as a limit tells only on which side of the number the result lay.

On to `O=C1c2cn(-c3cccnc3)nc2CCN1c1cccc(C(F)(F)F)c1` [Compound F4, 2-(3-Pyridyl)-5-[3-(trifluoromethyl)phenyl]-6,7-dihydropyrazolo[4,3-c]pyridin-4-one], for which the mortality at 200 ppm in assay [1] lay within 0 to 80%; in assay [2], 80 to 100%.

For `O=C1c2cn(-c3cccnc3)nc2CCN1c1ccnc(C(F)(F)F)c1` [Compound F5, 2-(3-Pyridyl)-5-[2-(trifluoromethyl)-4-pyridyl]-6,7-dihydropyrazolo[4,3-c]pyridin-4-one], the mortality at 200 ppm in assay [1] was 0 to 80%; in assay [2] it was 80 to 100%.

On to `CC(C)N1CCc2nn(-c3cccnc3)cc2C1=O` [Compound F6, 5-Isopropyl-2-(3-pyridyl)-6,7-dihydropyrazolo[4,3-c]pyridin-4-one], for which the mortality at 200 ppm in assay [1] and in assay [2] was 80 to 100% throughout.

`O=C1c2cn(-c3cccnc3)nc2CCN1c1cc(C(F)(F)F)ccn1` [Compound F7, 2-(3-Pyridyl)-5-[4-(trifluoromethyl)-2-pyridyl]-6,7-dihydropyrazolo[4,3-c]pyridin-4-one]: the mortality at 200 ppm in assay [1] and in assay [2] was 80 to 100% each time.

With `CCOC(=O)CN1CCc2nn(-c3cccnc3)cc2C1=O` [Compound F8, ethyl 2-(4-oxo-2-(pyridin-3-yl)-6,7-dihydro-2H-pyrazolo[4,3-c]pyridin-5(4H)-yl)acetate], the mortality at 200 ppm in assay [1] and in assay [2] was 80 to 100% in each case.

Take `O=C1c2cn(-c3cccnc3)nc2CCN1c1ncccc1C(F)(F)F` [Compound F10, 2-(3-Pyridyl)-5-[3-(trifluoromethyl)-2-pyridyl]-6,7-dihydropyrazolo[4,3-c]pyridin-4-one]: the mortality at 200 ppm in assay [1] and in assay [2] was 0 to 80% throughout.

As for `CSCCC(=O)N1CCc2nn(-c3cccnc3)cc2C1=O` [Compound F12, 5-(3-(methylthio)propanoyl)-2-(pyridin-3-yl)-6,7-dihydro-2H-pyrazolo[4,3-c]pyridin-4(5H)-one], the mortality at 200 ppm in assay [1] lay in the range of 0 to 80%; in assay [2], 80 to 100%.

Take `O=C1c2cn(-c3cccnc3)nc2CCN1c1ccc(C(F)(F)F)cc1` [Compound F13, 2-(3-Pyridyl)-5-[4-(trifluoromethyl)phenyl]-6,7-dihydropyrazolo[4,3-c]pyridin-4-one]: the mortality at 200 ppm in assay [1] is 0 to 80%; in assay [2], 80 to 100%.

In the case of `O=C1c2cn(-c3cccnc3)nc2CCN1c1ccc(OC(F)(F)F)cc1` [Compound F14, 2-(3-Pyridyl)-5-[4-(trifluoromethoxy)phenyl]-6,7-dihydropyrazolo[4,3-c]pyridin-4-one], the mortality at 200 ppm in assay [1] was in the range of 0 to 80%; in assay [2], 80 to 100%.

With `COc1ccccc1CN1CCc2nn(-c3cccnc3)cc2C1=O` [Compound F15, 5-[(2-Methoxyphenyl)methyl]-2-(3-pyridyl)-6,7-dihydropyrazolo[4,3-c]pyridin-4-one], the results for the mortality at 200 ppm in assay [1] and in assay [2] were 80 to 100% and 0 to 80%, respectively.

`O=C1c2cn(-c3cccnc3)nc2CCN1Cc1ccccc1F` [Compound F17, 5-(2-fluorobenzyl)-2-(pyridin-3-yl)-6,7-dihydro-2H-pyrazolo[4,3-c]pyridin-4(5H)-one]: the mortality at 200 ppm is 80 to 100% in assay [1] and 0 to 80% in assay [2].

For the compound `COc1cccc(N2CCc3nn(-c4cccnc4)cc3C2=O)n1` [Compound F18, 5-(6-Methoxy-2-pyridyl)-2-(3-pyridyl)-6,7-dihydropyrazolo[4,3-c]pyridin-4-one], the mortality at 200 ppm in assay [1] and in assay [2] was 0 to 80% throughout.

For `O=C1c2cn(-c3cccnc3)nc2CCN1CCSCCC(F)(F)F` [Compound F19, 2-(pyridin-3-yl)-5-(2-((3,3,3-trifluoropropyl)thio)ethyl)-6,7-dihydro-2H-pyrazolo[4,3-c]pyridin-4(5H)-one], the mortality at 200 ppm in assay [1] and in assay [2] was 80 to 100% throughout.

For `CSCN1CCc2nn(-c3cccnc3)cc2C1=O` [Compound F20, 5-(Methylsulfanylmethyl)-2-(3-pyridyl)-6,7-dihydropyrazolo[4,3-c]pyridin-4-one], the mortality at 200 ppm in assay [1] and in assay [2] was 80 to 100% in each case.

On to `O=C1c2cn(-c3cccnc3)nc2CCN1c1cncc(C(F)(F)F)c1` [Compound F21, 2-(3-Pyridyl)-5-[5-(trifluoromethyl)-3-pyridyl]-6,7-dihydropyrazolo[4,3-c]pyridin-4-one], for which the mortality at 200 ppm in assay [1] and in assay [2] was 80 to 100% each time.

For the compound `O=C1c2cn(-c3cccnc3)nc2CCN1c1cccc(OC(F)(F)F)c1` [Compound F22, 2-(3-Pyridyl)-5-[3-(trifluoromethoxy)phenyl]-6,7-dihydropyrazolo[4,3-c]pyridin-4-one], the mortality at 200 ppm in assay [1] and in assay [2] was 80 to 100% throughout.

On to `COc1ccc(CN2CCc3nn(-c4cccnc4)cc3C2=O)cc1` [Compound F23, 5-[(4-Methoxyphenyl)methyl]-2-(3-pyridyl)-6,7-dihydropyrazolo[4,3-c]pyridin-4-one], for which the mortality at 200 ppm in assay [1] and in assay [2] was 80 to 100% in each case.

Consider `CN1CCc2nn(-c3cccnc3)cc2C1=O` [Compound F28, 5-methyl-2-(pyridin-3-yl)-6,7-dihydro-2H-pyrazolo[4,3-c]pyridin-4(5H)-one], for which the values for the mortality at 200 ppm in assay [1] and in assay [2] were 0 to 80% and 80 to 100%, respectively.

For `O=C1c2cn(-c3cccnc3)nc2CCN1Cc1cccc(C(F)(F)F)c1` [Compound F29, 2-(3-Pyridyl)-5-[[3-(trifluoromethyl)phenyl]methyl]-6,7-dihydropyrazolo[4,3-c]pyridin-4-one], the mortality at 200 ppm in assay [1] and in assay [2] was 80 to 100% in each case.

For the compound `C=CCN1CCc2nn(-c3cccnc3)cc2C1=O` [Compound F31, 5-allyl-2-(pyridin-3-yl)-6,7-dihydro-2H-pyrazolo[4,3-c]pyridin-4(5H)-one], the mortality at 200 ppm fell in the range of 0 to 80% in assay [1] and 80 to 100% in assay [2].

In the case of `O=C1c2cn(-c3cccnc3)nc2CCN1Cc1ccccc1C(F)(F)F` [Compound F32, 2-(3-Pyridyl)-5-[[2-(trifluoromethyl)phenyl]methyl]-6,7-dihydropyrazolo[4,3-c]pyridin-4-one], the mortality at 200 ppm fell in the range of 80 to 100% in assay [1] and 0 to 80% in assay [2].

As for `O=C1c2cn(-c3cccnc3)nc2CCN1c1ccc(C(F)(F)F)nc1` [Compound F33, 2-(3-Pyridyl)-5-[6-(trifluoromethyl)-3-pyridyl]-6,7-dihydropyrazolo[4,3-c]pyridin-4-one], the mortality at 200 ppm in assay [1] was 0 to 80%; in assay [2], 80 to 100%.

As for `O=C1c2cn(-c3cccnc3)nc2CCN1c1ncccn1` [Compound F34, 2-(3-Pyridyl)-5-pyrimidin-2-yl-6,7-dihydropyrazolo[4,3-c]pyridin-4-one], the mortality at 200 ppm in assay [1] and in assay [2] was 80 to 100% each time.

As to `O=C1c2cn(-c3cccnc3)nc2CCN1c1ccc(C(F)(F)F)cn1` [Compound F37, 2-(pyridin-3-yl)-5-(5-(trifluoromethyl)pyrdin-2-yl)-6,7-dihydro-2H-pyrazolo[4,3-c]pyridin-4(5H)-one], the mortality at 200 ppm in assay [1] and in assay [2] was 80 to 100% each time.

Regarding `O=C1c2cn(-c3cccnc3)nc2CCN1c1cccc(-c2ncccn2)n1` [Compound F38, 2-(3-Pyridyl)-5-(6-pyrimidin-2-yl-2-pyridyl)-6,7-dihydropyrazolo[4,3-c]pyridin-4-one], the values for the mortality at 200 ppm in assay [1] and in assay [2] were below 0% and 0 to 80%, respectively.

As to `N#CCN1CCc2nn(-c3cccnc3)cc2C1=O` [Compound F39, 2-[4-Oxo-2-(3-pyridyl)-6,7-dihydropyrazolo[4,3-c]pyridin-5-yl]acetonitrile], the mortality at 200 ppm in assay [1] was 0 to 80%; in assay [2], 80 to 100%.

Regarding `CSCCN1CCc2nn(-c3cccnc3)cc2C1=O` [Compound F40, 5-(2-(methylthio)ethyl)-2-(pyridin-3-yl)-6,7-dihydro-2H-pyrazolo[4,3-c]pyridin-4(5H)-one], the mortality at 200 ppm in assay [1] and in assay [2] was 80 to 100% each time.

By mortality is commonly meant the percentage killed.
